Measured values: ChEMBL document CHEMBL1150565, “Cheilanthane sesterterpenes, protein kinase inhibitors, from a marine sponge of the genus Ircinia” (J Nat Prod, 2001)

Assays:
[1] = target: Ribosomal protein S6 kinase alpha-5 (Homo sapiens, UniProt O75582); test: Inhibition of MSK1 assessed as [33P] incorporation by scintillation proximity assay
[2] = target: MAP kinase-activated protein kinase 2 (Homo sapiens, UniProt P49137); test: Inhibition of MAPKAPK2 assessed as [33P] incorporation by scintillation proximity assay
Chain of MAP kinase-activated protein kinase 2 (P49137 whole entry): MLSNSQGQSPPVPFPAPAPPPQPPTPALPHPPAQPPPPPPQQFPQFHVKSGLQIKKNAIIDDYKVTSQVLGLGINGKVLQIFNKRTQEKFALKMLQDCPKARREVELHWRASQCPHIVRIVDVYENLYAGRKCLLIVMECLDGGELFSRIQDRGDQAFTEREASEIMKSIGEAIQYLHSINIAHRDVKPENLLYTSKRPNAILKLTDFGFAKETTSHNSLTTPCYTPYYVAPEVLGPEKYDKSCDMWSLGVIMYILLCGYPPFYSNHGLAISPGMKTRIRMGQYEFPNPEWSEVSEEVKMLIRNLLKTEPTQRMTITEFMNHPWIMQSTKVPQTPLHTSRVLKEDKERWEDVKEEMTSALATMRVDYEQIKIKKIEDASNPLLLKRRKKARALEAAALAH

Chain of Ribosomal protein S6 kinase alpha-5 (O75582 whole entry): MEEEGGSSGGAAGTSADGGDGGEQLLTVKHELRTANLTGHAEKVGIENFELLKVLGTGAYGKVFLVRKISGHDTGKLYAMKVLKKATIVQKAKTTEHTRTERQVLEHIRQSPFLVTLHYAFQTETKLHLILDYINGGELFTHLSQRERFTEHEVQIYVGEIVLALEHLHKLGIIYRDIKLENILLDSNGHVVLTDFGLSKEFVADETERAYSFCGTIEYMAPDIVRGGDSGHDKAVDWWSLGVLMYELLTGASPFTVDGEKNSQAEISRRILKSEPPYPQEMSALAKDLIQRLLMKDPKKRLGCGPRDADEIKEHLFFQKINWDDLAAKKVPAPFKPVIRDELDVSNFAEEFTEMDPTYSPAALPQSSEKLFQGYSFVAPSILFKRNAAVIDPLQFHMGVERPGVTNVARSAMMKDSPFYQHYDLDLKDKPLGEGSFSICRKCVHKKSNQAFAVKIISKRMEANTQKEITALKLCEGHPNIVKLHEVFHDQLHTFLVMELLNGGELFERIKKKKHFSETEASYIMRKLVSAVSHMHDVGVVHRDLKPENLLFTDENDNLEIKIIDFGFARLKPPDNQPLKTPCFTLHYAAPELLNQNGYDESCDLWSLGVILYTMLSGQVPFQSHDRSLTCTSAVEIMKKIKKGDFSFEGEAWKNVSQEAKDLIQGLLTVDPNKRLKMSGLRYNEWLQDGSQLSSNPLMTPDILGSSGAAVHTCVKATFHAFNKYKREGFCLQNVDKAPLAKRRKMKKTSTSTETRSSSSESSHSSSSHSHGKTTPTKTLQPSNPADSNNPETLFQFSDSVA

| SMILES | IC50 [1] [µM] | IC50 [2] [µM] |
| --- | --- | --- |
| C=C1CC[C@H]2[C@@](C)(CC[C@H]3C(C)(C)CCC[C@]23C)[C@@H]1CC1OC(=O)C=C1CO (stereo partly drawn) | 4 | 90 |
| CC1(C)CCC[C@]2(C)[C@H]3CC[C@]4(C)O[C@@H](C5=CC(=O)OC5O)C[C@H]4[C@]3(C)CC[C@@H]12 (mixture of isomers) | 4 | 90 |
| C=C1CC[C@H]2[C@@](C)(CC[C@H]3C(C)(C)CCC[C@]23C)[C@@H]1/C=C/C1=CC(=O)OC1O (mixture of isomers) | 4 | 90 |
| C=C1CC[C@H]2[C@@](C)(CC[C@H]3C(C)(C)CCC[C@]23C)[C@@H]1CC(O)C1=CC(=O)OC1O (mixture of isomers) | 4 | 90 |
